The source of these data is ChEMBL document CHEMBL2074221, “Breast cancer resistance protein (BCRP/ABCG2) induces cellular resistance to HIV-1 nucleoside reverse transcriptase inhibitors” (Mol Pharmacol, 2003).

The structures appear in SMILES notation. *1 amine or outer side, *2 acyl side, *3 side chain or, on linkers, in order; H or OH if unused. Where a SMILES comes first, the peptide text is derived from it. Bridges are numbered along the chain shown (N, C = ends). Roman numbers before positions name the chains, in order. [ ]: non-standard residue; d: D form. Actinocin(9to1) = Cc1c2oc3c(C)ccc(C(=O)[*:1])c3nc-2c(C(=O)[*:2])c(N)c1=O; NMeV = CN[C@H](C(=O)O)C(C)C; Sar = CNCC(=O)O

In one series the target is T1, Broad substrate specificity ATP-binding cassette transporter ABCG2 (Homo sapiens, UniProt Q9UNQ0).
T1 sequence (Q9UNQ0 whole entry): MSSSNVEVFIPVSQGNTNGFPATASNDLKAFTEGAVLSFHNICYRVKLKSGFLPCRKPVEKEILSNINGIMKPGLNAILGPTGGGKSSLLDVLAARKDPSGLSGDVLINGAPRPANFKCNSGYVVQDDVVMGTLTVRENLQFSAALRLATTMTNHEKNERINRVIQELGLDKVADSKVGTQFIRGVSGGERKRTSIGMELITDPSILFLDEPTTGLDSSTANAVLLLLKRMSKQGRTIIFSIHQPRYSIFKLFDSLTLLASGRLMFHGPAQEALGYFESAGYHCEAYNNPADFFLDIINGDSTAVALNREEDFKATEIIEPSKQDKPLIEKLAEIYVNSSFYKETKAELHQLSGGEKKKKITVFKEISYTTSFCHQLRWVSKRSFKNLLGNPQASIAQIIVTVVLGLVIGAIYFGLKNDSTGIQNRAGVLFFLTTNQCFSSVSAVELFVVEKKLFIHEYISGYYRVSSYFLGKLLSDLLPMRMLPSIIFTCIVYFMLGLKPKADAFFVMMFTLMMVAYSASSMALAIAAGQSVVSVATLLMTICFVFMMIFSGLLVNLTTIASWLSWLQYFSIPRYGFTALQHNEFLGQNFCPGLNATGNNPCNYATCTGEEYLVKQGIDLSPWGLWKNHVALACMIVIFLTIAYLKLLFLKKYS
Briefly: TP_TRANSPORTER: Anti-HIV-1 activity in MT-4 and MT-4/DOX500. Type of series: functional, cell-based.
With `Cc1cn([C@H]2C[C@H](N=[N+]=[N-])[C@@H](CO)O2)c(=O)[nH]c1=O` [ZIDOVUDINE], the Activity result is “substrate []”. With `Nc1ccn([C@@H]2CS[C@H](CO)O2)c(=O)n1` [LAMIVUDINE], the Activity entry is “substrate []”.

A further series deals with T1, Broad substrate specificity ATP-binding cassette transporter ABCG2. The series can be described thus: TP_TRANSPORTER: Cytotoxicity in MT-4 and MT-4/DOX500 cells. Type of series: functional, cell-based.
With `CCc1c2c(nc3ccc(OC(=O)N4CCC(N5CCCCC5)CC4)cc13)-c1cc3c(c(=O)n1C2)COC(=O)[C@]3(O)CC` [IRINOTECAN], the Activity result is “substrate []”. For the compound `Cc1cn([C@H]2C[C@H](N=[N+]=[N-])[C@@H](CO)O2)c(=O)[nH]c1=O` [ZIDOVUDINE], the Activity entry is “substrate []”. Same read-out and setting: under `CCc1c2c(nc3ccc(O)cc13)-c1cc3c(c(=O)n1C2)COC(=O)[C@]3(O)CC` [7-ETHYL-10-HYDROXYCAMPTOTHECIN] stands “substrate []”; under `COc1cccc2c1C(=O)c1c(O)c3c(c(O)c1C2=O)C[C@@](O)(C(=O)CO)C[C@@H]3O[C@H]1C[C@H](N)[C@H](O)[C@H](C)O1` [DOXORUBICIN], “substrate []”; under `COc1cc([C@@H]2c3cc4c(cc3[C@@H](O[C@@H]3O[C@@H]5CO[C@@H](C)O[C@H]5[C@H](O)[C@H]3O)[C@H]3COC(=O)[C@H]23)OCO4)cc(OC)c1O` [ETOPOSIDE], “substrate []”. In the case of `O=C1c2c(O)ccc(O)c2C(=O)c2c(NCCNCCO)ccc(NCCNCCO)c21` [MITOXANTRONE], the Activity result is “substrate []”. As for `Cc1c2oc3c(C)ccc(C(=O)N[C@@H]4C(=O)N[C@H](C(C)C)C(=O)N5CCC[C@H]5C(=O)N(C)CC(=O)N(C)[C@@H](C(C)C)C(=O)O[C@@H]4C)c3nc-2c(C(=O)N[C@@H]2C(=O)N[C@H](C(C)C)C(=O)N3CCC[C@H]3C(=O)N(C)CC(=O)N(C)[C@@H](C(C)C)C(=O)O[C@@H]2C)c(N)c1=O` [DACTINOMYCIN] (I: T[dV]P[Sar][NMeV] / II: T[dV]P[Sar][NMeV]; ester I:1-I:C, II:1-II:C; linker I:N-II:N via Actinocin(9to1)), the Activity entry was “substrate []”.
